Test results published in paper PMC4912077 (PLoS ONE, 2016).

What was measured:
Alpha2C = biological target: T1, Alpha2C (Homo sapiens, UniProt P18825); experiment: NIMH PDSP radioligand binding, Alpha2C
T1 sequence (P18825 1-462): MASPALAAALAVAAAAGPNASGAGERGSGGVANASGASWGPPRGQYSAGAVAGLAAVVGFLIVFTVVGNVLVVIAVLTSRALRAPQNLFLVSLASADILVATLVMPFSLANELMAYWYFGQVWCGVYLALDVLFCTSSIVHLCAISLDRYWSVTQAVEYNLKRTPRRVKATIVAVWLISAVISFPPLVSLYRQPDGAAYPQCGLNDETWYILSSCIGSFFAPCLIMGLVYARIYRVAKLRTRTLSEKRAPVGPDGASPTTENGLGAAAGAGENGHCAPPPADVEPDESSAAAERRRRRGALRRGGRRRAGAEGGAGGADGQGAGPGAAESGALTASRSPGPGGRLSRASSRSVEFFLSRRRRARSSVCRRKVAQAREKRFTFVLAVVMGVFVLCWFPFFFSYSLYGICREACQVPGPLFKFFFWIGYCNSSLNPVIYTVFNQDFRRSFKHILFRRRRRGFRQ
Experimental: (§1) Radioligands and concentrations used for additional 45 CNS receptor binding assays are listed as supporting information (S1 Table). This work was performed by the National Institute of Mental Health Psychoactive Drug Screening Program (NIMH PDSP) as described previously.[26] Briefly target compounds were dissolved in DMSO and subjected to a primary screen at 10,000 nM concentration. […] Additional experimental details are available in the NIMH PDSP assay protocol book.

NMDA receptor = experiment: NMDA receptor-mediated fEPSP (NMDAR-fEPSP) in CA1 of hippocampal slices; format: cell-based, rat; settings: 10 μM
Experimental: (§2) Male Wistar rats (Crl:Wi; Charles River, UK) aged 9–10 wk were sacrificed by neck vertebral dislocation (schedule 1 method) according to the United Kingdom (Scientific Procedures) Act of 1986. […] The brain was cut parasagittally into 400 μm sections and hippocampal slices were removed, stored and placed in a submerged recording chamber at 28–30°C. Recordings of synaptic activity were made, analyzed and presented as described. A bipolar electrode was used to deliver stimuli (0.03 Hz) to the Schaffer collateral pathway to enable recording of field excitatory synaptic potentials (fEPSPs) using a glass microelectrode positioned in the stratum radiatum of area CA1. […] After 30 min of stable control responses, 1 and 10 μM solutions of the individual compounds were added to the perfusate for 3–12 h while recording the amplitude and area of the NMDAR-fEPSP on-line using WinLTP [31]. Single exponential curves were fitted to the graphs and curves extrapolated to show likely half-times and minimum plateau responses achieved with each concentration of the compounds. Raw data for all fEPSP experiments are provided as supporting information (S2, S3 and S4 Files).

Alpha2A = Alpha2A (Homo sapiens, UniProt P08913); experiment: NIMH PDSP radioligand binding, Alpha2A
Alpha2A, sequence (P08913 whole entry): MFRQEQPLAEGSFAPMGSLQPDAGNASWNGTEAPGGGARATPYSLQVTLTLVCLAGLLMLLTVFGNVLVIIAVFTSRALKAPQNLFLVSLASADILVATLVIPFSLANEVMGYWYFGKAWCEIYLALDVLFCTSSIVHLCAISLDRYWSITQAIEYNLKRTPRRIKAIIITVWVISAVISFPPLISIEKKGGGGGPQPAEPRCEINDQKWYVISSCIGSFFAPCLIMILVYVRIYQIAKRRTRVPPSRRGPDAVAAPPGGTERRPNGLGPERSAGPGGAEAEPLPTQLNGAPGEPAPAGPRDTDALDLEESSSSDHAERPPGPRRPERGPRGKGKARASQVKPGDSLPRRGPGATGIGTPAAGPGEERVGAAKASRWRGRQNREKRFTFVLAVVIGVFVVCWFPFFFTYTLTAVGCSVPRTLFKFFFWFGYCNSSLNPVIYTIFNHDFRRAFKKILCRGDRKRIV
Experimental: as §1

AMPA receptor = experiment: AMPA receptor-mediated fEPSP in hippocampal slices (2-MXP selectivity); format: cell-based, rat
Experimental: as §2
To examine the specificity of DPH analogues, 2-MXP was superfused at 50 (n = 2) and 100 μM (n = 1) in the absence of AMPA and GABA receptor antagonists (Fig 3C).

NET [1] = biological target: T2, NET (Homo sapiens, UniProt P23975); experiment: Monoamine reuptake inhibition assay, NET in HEK293 cells; format: cell-based; design: expressed in transfected cells; host or cells: HEK293; settings: for Hill slope NET reuptake inhibition: HEK293 cells
T2 sequence (P23975 whole entry): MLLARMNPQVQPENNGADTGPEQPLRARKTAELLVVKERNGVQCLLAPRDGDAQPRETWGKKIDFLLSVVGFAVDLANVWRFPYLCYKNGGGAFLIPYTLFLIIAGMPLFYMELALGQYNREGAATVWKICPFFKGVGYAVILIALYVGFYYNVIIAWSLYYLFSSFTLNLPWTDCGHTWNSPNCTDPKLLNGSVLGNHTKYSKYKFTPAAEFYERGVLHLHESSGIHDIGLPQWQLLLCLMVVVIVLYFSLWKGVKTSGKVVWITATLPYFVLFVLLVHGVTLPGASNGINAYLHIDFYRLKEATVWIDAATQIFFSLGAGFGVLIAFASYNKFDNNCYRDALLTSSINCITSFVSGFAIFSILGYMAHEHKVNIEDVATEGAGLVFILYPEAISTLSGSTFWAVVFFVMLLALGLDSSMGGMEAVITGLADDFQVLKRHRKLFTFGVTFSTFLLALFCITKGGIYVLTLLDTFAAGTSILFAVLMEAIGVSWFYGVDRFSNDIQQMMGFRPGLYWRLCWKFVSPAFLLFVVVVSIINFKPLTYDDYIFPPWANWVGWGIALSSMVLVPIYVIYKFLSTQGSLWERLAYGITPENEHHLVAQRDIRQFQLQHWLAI
Experimental: Monoamine reuptake inhibition assays were performed via the NIMH PDSP as previously described.[28] In brief, the neurotransmitter transporter uptake assay kit (R8174) (Molecular Devices) was used. Human monoamine transporters (DAT, NET and SERT) were stably expressed in HEK293 cells. Assay buffer consisted of 20 mM HEPES, 1x HBSS at pH 7.4. Cells were plated in Pol-L-Lys (PLL) coated 384-well black clear bottom cell culture plates with a density of 15,000 cells/well. Cells were incubated for at least 6 h prior to assay. Media was removed and replaced with 20 μL assay buffer and 5 μL of drug or positive control (cocaine or nisoxetine) as a 5X stock. Cells were incubated for 30 min at 37°C. 25 μL of dye solution was then added and following an additional 30 min incubation (at 37°C) fluorescence intensity was measured using a FlexStation II (bottom read mode, excitation wavelength = […], emission = 520 nM with a cutoff of 510 nM). […] Additional details are available in the NIMH PDSP assay protocol book.

M1 = M1 (Homo sapiens, UniProt P11229); experiment: NIMH PDSP radioligand binding, M1
M1, sequence (P11229 whole entry): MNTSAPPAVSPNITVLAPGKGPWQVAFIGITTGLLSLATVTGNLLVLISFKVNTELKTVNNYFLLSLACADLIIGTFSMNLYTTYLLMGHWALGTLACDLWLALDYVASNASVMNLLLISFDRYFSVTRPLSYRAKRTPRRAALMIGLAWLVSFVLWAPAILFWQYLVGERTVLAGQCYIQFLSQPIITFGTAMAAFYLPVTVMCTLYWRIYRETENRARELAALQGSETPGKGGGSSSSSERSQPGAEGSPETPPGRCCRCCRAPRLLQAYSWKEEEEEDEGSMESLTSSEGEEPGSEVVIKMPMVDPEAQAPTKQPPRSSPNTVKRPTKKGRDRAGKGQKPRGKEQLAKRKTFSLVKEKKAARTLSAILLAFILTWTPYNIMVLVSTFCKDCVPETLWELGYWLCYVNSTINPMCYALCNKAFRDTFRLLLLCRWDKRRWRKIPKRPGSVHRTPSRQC

NET [2] = biological target: T2, NET; experiment: NIMH PDSP radioligand binding, NET
Experimental: as §1

M2 = M2 (Homo sapiens, UniProt P08172); experiment: NIMH PDSP radioligand binding, M2
M2, sequence (P08172 whole entry): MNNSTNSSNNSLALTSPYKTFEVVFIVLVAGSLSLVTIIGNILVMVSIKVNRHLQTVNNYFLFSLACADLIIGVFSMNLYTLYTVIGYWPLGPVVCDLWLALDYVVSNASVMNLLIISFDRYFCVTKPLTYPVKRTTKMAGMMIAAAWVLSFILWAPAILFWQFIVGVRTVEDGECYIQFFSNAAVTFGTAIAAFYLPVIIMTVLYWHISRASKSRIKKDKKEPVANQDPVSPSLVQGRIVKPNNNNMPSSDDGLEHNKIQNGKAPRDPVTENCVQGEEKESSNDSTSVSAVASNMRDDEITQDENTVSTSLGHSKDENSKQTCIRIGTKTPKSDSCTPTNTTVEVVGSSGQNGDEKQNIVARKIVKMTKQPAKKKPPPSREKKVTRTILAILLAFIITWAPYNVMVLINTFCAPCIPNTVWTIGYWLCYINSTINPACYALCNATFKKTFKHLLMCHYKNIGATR

Alpha2B = Alpha2B (Homo sapiens, UniProt P18089); experiment: NIMH PDSP radioligand binding, Alpha2B
Alpha2B, sequence (P18089 whole entry): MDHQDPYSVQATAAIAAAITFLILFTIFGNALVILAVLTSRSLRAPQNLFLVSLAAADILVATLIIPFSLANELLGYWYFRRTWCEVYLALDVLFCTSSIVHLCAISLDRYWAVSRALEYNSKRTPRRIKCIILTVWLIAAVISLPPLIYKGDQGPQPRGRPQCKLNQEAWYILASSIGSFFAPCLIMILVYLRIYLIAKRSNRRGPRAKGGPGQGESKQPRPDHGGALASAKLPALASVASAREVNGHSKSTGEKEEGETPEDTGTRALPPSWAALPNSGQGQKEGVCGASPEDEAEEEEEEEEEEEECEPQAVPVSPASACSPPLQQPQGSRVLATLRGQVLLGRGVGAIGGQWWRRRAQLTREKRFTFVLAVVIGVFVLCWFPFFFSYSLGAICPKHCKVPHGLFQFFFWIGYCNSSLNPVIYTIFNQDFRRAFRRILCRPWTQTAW
Experimental: as §1

H3 = H3 (Homo sapiens, UniProt Q9Y5N1); experiment: NIMH PDSP radioligand binding, H3
H3, sequence (Q9Y5N1 whole entry): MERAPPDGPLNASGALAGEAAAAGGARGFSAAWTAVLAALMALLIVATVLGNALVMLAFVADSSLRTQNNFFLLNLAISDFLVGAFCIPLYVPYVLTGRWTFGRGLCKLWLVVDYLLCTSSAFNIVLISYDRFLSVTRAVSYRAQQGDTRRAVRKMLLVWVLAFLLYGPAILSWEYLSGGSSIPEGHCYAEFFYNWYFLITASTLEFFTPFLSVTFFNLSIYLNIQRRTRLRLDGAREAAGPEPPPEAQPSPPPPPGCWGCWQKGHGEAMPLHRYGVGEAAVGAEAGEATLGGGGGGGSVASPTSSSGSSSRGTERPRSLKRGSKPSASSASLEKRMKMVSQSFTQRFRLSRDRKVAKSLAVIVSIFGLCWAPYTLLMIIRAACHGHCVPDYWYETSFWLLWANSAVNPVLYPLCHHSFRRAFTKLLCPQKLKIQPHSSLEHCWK
Experimental: as §1

COc1ccccc1C(Cc1ccccc1)N1CCCCC1 (stereo not drawn) [2-MXP, 2-methoxydiphenidine]
Ki (Alpha2C): 1940 nM | effect on NMDAR-fEPSP (NMDA receptor): abolished | Ki (Alpha2A): 2000 nM | effect on AMPA receptor-mediated fEPSP (AMPA receptor; 50 and 100 μM, without AMPA and GABA receptor antagonists): No reduction of the AMPA receptor-mediated fEPSP was seen | potency as antagonist of NMDAR relative to AMPA receptor responses (AMPA receptor; hippocampal slices): > 50 times | IC50 (NET [1]): 35200 nM | Hill slope NET reuptake inhibition (NET [1]): 2.04

c1ccc(CC(c2ccccc2)N2CCCCC2)cc1 (stereo not drawn) [DPH, diphenidine]
Ki (Alpha2C): 3050 nM | Ki (M1): 2650 nM | Ki (NET [2]): 2810 nM | Ki (M2): 3700 nM | Ki (Alpha2B): 4380 nM | IC50 (NET [1]): 9250 nM | Hill slope NET reuptake inhibition (NET [1]): 0.97 | Ki (H3): 1020 nM
